Results as given in patent publication US4370330A, “Method of enhancing circulation with piperazines” (Merz & Company, priority 1979, dated 1983).
Where a name gives a salt, the structure may show the parent alone. Read-outs that look alike come from different tables or passages of the source.

How the values were obtained:
[1] = tested on: cerebrovascular resistance; experiment: cerebrovascular resistance on the rabbit (Hutten and Vaupel), decrease in vascular resistance after arterial application; assay type: in vivo; conditions: for inhibition in vivo at 1 %: Oryctolagus cuniculus, read-out: ΔR % (relative decrease in vascular resistance)
Protocol: The therapeutic effect is expressed in terms of decrease in vascular resistance.
For this purpose 0.1 ml of a 1% solution of the test substance, i.e., according to the invention, was administered to the rabbit by arterial application. The decrease in vascular resistance (R) and the relative decrease in vascular resistance (ΔR%) were recorded and expressed in mm Hg min/l or in the valid S.I. unit k Pa min/ml, i.e., absolute decrease of resistance x time.
The activity of this compound was tested by means of the aforementioned method.

in vivo [2] = experiment: in vivo
From the text: The calculation of the therapeutic indices was based on the

in vivo [3] = experiment: in vivo; remark: listed apart in the source
[4] = Table 2; mean effective dose
[5] = acute toxicity after oral application, LD50; conditions: in vivo
From the text: The therapeutic range of the substances according to the invention can again be described as excellent, since the LD50 values lie in a favorable range, as is shown by the results of acute toxicity tests on the mouse after oral application.

[6] = Table 1, rabbit, 0.1 ml of a 1% solution, arterial application
[7] = Table 3, mouse oral, 24 h, read-out: Acute toxicities LD50, 24 h
[8] = Table 3, mouse oral, 14 days, read-out: Acute toxicities LD50, 14 days
[9] = Table 4, rabbit, 0.1 ml of a 1% solution, arterial application
[10] = mouse, po, read-out: Acute toxicity LD50, 24 h
[11] = mouse, po, read-out: Acute toxicity LD50, 14 days

| SMILES | inhibition in vivo at 1 % [1, 6] | Absolute decrease of vascular resistance R [1, 6] | LD50 (in vivo [2]; iv) | selectivity ratio (in vivo [3]; iv) | ED50 [4] | LD50 at 24 h [5, 7] | LD50 at 336 h [5, 8] | other results |
| --- | --- | --- | --- | --- | --- | --- | --- | --- |
| COc1cccc(N2CCN(Cc3cc(OC)c(OC)c(OC)c3)CC2)c1.Cl [m. Methoxy-, N-(3,4,5-trimethoxy-benzyl)-N'-(3-methoxyphenyl)-piperazine hydrochloride] | 28.5% | 3,0 mm Hg min/l | 850 mg/kg | 2010 | 0,42 mg/kg | 411 mg/kg | 285 mg/kg | – |
| COc1cc(CN2CCN(c3cccc(C)c3)CC2)cc(OC)c1OC.Cl [m. Methyl-, N-(3,4,5-trimethoxy-benzyl)-N'-(3-methylphenyl)-piperazine hydrochloride] | 22% | 3,2 mm Hg min/l | 700 mg/kg | 1520 | 0,46 mg/kg | 452 mg/kg | 310 mg/kg | – |
| C(=C\c1ccccc1)/CN1CCN(C(c2ccccc2)c2ccccc2)CC1 [Cinnarizine, reference compound] | 19.3% | 2,9 mm Hg min/l | – | – | – | – | – | Absolute decrease in vascular resistance R [1, 9]: 2.9 mm Hg min/l |
| COc1cc(CN2CCN(c3ccc(F)cc3)CC2)cc(OC)c1OC.Cl [p. Fluoro-, N-(3,4,5-trimethoxy-benzyl)-N'-(4-fluorophenyl)-piperazine hydrochloride] | 26.4% | 4,6 mm Hg min/l | 580 mg/kg | 1570 | 0,37 mg/kg | 350 mg/kg | 275 mg/kg | – |
| COc1cc(CN2CCN(c3ccccc3)CC2)cc(OC)c1OC.Cl [Example 21, N-(3,4,5-trimethoxy-benzyl)-N'-phenyl-piperazine hydrochloride] | – | – | – | – | – | – | – | Absolute decrease of vascular resistance R ([1]; Hutten and Vaupel rabbit test): 3.0 mm. Hg. min/l; circulation stimulant activity (in words) ([1]; Hutten and Vaupel rabbit test): circulation stimulant; decrease of vascular resistance (ΔR %) ([1]; Hutten and Vaupel rabbit test): 23.2%; LD50 at 24 h ([5]; mouse, oral, 24 hours, read-out: oral acute toxicity (LD50) after 24 hours): 320 mg/kg; LD50 at 336 h ([5]; mouse, oral, fourteen days, read-out: oral acute toxicity (LD50) after fourteen days): 265 mg/kg |
| CCOc1ccccc1N1CCN(Cc2cc(OC)c(OC)c(OC)c2)CC1.Cl.Cl [o. Ethoxy-, N-(3,4,5-trimethoxy-benzyl)-N'-(2-ethoxyphenyl)-piperazine dihydrochloride] | 20.4% | 2,85 mm Hg min/l | 900 mg/kg | 1990 | 0,45 mg/kg | 411 mg/kg | 266 mg/kg | – |
| COc1cc(CN2CCN(c3ccc(C)c(C)c3)CC2)cc(OC)c1OC [Example 1] | – | – | – | – | – | – | – | inhibition in vivo at 1 % [1, 9]: 24.3%; LD50 (in vivo [2]): 260 mg/kg; selectivity ratio (in vivo [3]): 13000; LD50 at 24 h [5, 10]: 348 mg/kg; LD50 at 336 h [5, 11]: 263 mg/kg |
| COc1cc(CN2CCN(c3c(C)cccc3C)CC2)cc(OC)c1OC [Example 6] | – | – | – | – | – | – | – | inhibition in vivo at 1 % [1, 9]: 23%; LD50 (in vivo [2]): 265 mg/kg; selectivity ratio (in vivo [3]): 3800; LD50 at 24 h [5, 10]: 348 mg/kg; LD50 at 336 h [5, 11]: 265 mg/kg |
| COc1cc(CN2CCN(c3ccccc3F)CC2)cc(OC)c1OC.Cl [o. Fluoro-, N-(3,4,5-trimethoxy-benzyl)-N'-(2-fluorophenyl)-piperazine hydrochloride] | 23% | 3,0 mm Hg min/l | 920 mg/kg | 2280 | 0,40 mg/kg | – | – | – |
| COc1cc(CN2CCN(c3ccc(C)cc3)CC2)cc(OC)c1OC [p. Methyl-, hydrochloride] | 23% | 3,3 mm Hg min/l | 720 mg/kg | 1630 | 0,44 mg/kg | 459 mg/kg | 312 mg/kg | – |
| COc1cc(CN2CCN(c3ccccc3C)CC2)cc(OC)c1OC [o. Methyl-, N-(3,4,5-trimethoxybenzyl)-N'-(2-methylphenyl)-piperazine] | 24.5% | 3,3 mm Hg min/l | 700 mg/kg | 1450 | 0,48 mg/kg | 457 mg/kg | 311 mg/kg | – |
| COc1cc(CN2CCN(c3ccc(Cl)c(C(F)(F)F)c3)CC2)cc(OC)c1OC [Example 2] | – | – | – | – | – | – | – | inhibition in vivo at 1 % [1, 9]: 26.3%; LD50 (in vivo [2]): 283 mg/kg; selectivity ratio (in vivo [3]): 3150; LD50 at 24 h [5, 10]: 328 mg/kg; LD50 at 336 h [5, 11]: 283 mg/kg |
| COc1cc(CN2CCN(c3ccccc3[N+](=O)[O-])CC2)cc(OC)c1OC.Cl [o. Nitro-, N-(3,4,5-trimethoxy-benzyl)-N'-(2-nitrophenyl)-piperazine hydrochloride] | 20.6% | 3,1 mm Hg min/l | 650 mg/kg | 1300 | 0,50 mg/kg | 274 mg/kg | 201 mg/kg | – |
| COc1cc(CN2CCN(c3ccc4c(c3)OCO4)CC2)cc(OC)c1OC [Example 3] | – | – | – | – | – | – | – | inhibition in vivo at 1 % [1, 9]: 22%; LD50 (in vivo [2]): 297 mg/kg; selectivity ratio (in vivo [3]): 2700; LD50 at 24 h [5, 10]: 312 mg/kg; LD50 at 336 h [5, 11]: 296 mg/kg |
| COc1cc(CN2CCN(c3cc(OC)c(OC)c(OC)c3)CC2)cc(OC)c1OC [Example 4] | – | – | – | – | – | – | – | inhibition in vivo at 1 % [1, 9]: 21.5%; LD50 (in vivo [2]): 350 mg/kg; selectivity ratio (in vivo [3]): 7000; LD50 at 24 h [5, 10]: 348 mg/kg; LD50 at 336 h [5, 11]: 348 mg/kg |
| COc1cc(CN2CCN(c3ccc(O)cc3)CC2)cc(OC)c1OC.Cl [p. Hydroxy-, N-(3,4,5-trimethoxy-benzyl)-N'-(4-hydroxyphenyl)-piperazine hydrochloride] | 19.5% | 2,8 mm Hg min/l | 1260 mg/kg | 2800 | 0,45 mg/kg | 306 mg/kg | 245 mg/kg | – |
| COc1cc(CN2CCN(c3cc(C(F)(F)F)cc(C(F)(F)F)c3)CC2)cc(OC)c1OC [Example 5] | – | – | – | – | – | – | – | inhibition in vivo at 1 % [1, 9]: 20.6%; LD50 (in vivo [2]): 280 mg/kg; selectivity ratio (in vivo [3]): 5600; LD50 at 24 h [5, 10]: 300 mg/kg; LD50 at 336 h [5, 11]: 280 mg/kg |
| COc1ccccc1N1CCN(Cc2cc(OC)c(OC)c(OC)c2)CC1.Cl.Cl [o. Methoxy-, N-(3,4,5-trimethoxy-benzyl)-N'-(2-methoxyphenyl)-piperazine dihydrochloride] | 22.2% | 2,94 mm Hg min/l | 1150 mg/kg | 2750 | 0,42 mg/kg | – | – | – |
| COc1ccc(N2CCN(Cc3cc(OC)c(OC)c(OC)c3)CC2)cc1.Cl.Cl [p. Methoxy-, N-(3,4,5-trimethoxy-benzyl)-N'-(4-methoxyphenyl)-piperazine dihydrochloride] | – | 3,90 mm Hg min/l | 910 mg/kg | 3050 | 0,30 mg/kg | – | – | inhibition in vivo at 1 % [1]: 27.8% |
| COc1cc(CN2CCN(c3ccccc3Cl)CC2)cc(OC)c1OC.Cl.Cl [o. Chloro-, N-(3,4,5-trimethoxy-benzyl)-N'-(2-chlorophenyl)-piperazine dihydrochloride] | 27.9% | 3,0 mm Hg min/l | 810 mg/kg | 2130 | 0,38 mg/kg | 295 mg/kg | 255 mg/kg | – |
| CCc1ccccc1N1CCN(Cc2cc(OC)c(OC)c(OC)c2)CC1.Cl.Cl [o. Ethyl-, N-(3,4,5-trimethoxy-benzyl)-N'-(2-ethylphenyl)-piperazine dihydrochloride] | 21.7% | 3,0 mm Hg min/l | 900 mg/kg | 2240 | 0,40 mg/kg | 456 mg/kg | 311 mg/kg | – |
